For data set [1], the system named is C57BL/6J male mice. As to the kind of experiment: Intraperitoneal administration of tetracycline hydrochloride for 10 days to mice fed with HFD for 8 weeks (Example 1). Type of data set: in vivo. The source says:
(§1) In the following Examples and Comparative examples, as an animal for producing a pathologic model animal, C57BL/6J male mice (Nippon CLEA, Inc.) were used. Further, as a high-fat diet (hereinafter referred to as “HFD”), D12492 (fat content: 60 kcal%) (Research Diet Inc.) was used. As a control diet, CE-2 (Nippon CLEA, Inc.) to be used for normal rearing of mice was used. As a tetracycline antibiotic, tetracycline hydrochloride (Sigma Inc.) was used. The administration of tetracycline hydrochloride was carried out by injection of a solution of 0, 10, 30 or 100 mg/10 mL of tetracycline hydrochloride prepared with a 0.5% physiological saline solution. Here, the “solution of 0 mg/10 mL of tetracycline hydrochloride” means a 0.5% physiological saline solution.
29 mice (6 weeks of age) were divided into a group of 15 mice fed with HFD (hereinafter referred to as an “HFD group”) and a group of 14 mice fed with a control diet (hereinafter referred to as a “control group”). The following experiments related to the HFD group (15 mice) and the control group (14 mice) were assigned to Example 1 and Comparative example 1, respectively.
Feeding of HFD or control diet and intraperitoneal administration of tetracycline hydrochloride First, the mice in the HFD group and the control group were fed ad libitum with HFD and the control diet for 8 weeks, respectively. Then, the mice in the HFD group and the control group were divided into 3 groups, respectively, in such a manner that the body weight and the body fat percentage were equal in the respective groups, thereby to form 3 groups in the HFD group (5 mice×3 groups), and 3 groups in the control group (5 mice×2 groups and 4 mice×1 group). Then, tetracycline hydrochloride was intraperitoneally administered to both the HFD group and the control group at a dose of 0, 10 and 30 mg/kg/day for 10 days (hereinafter, the groups administered with tetracycline hydrochloride at a dose of 0, 10 and 30 mg/kg/day are referred to as “TC 0 group”, “TC 10 group” and “TC 30 group”, respectively). The mice were fed ad libitum with HFD or the control diet also during the period of administering tetracycline hydrochloride.
The body weight of mice was measured on 4 days before initiation of administration of tetracycline hydrochloride and on day 1, 3, 5, 7, 10 and 11 after initiation of administration thereof. FIG. 1 is a line graph showing the change in the body weight of mice intraperitoneally administered with tetracycline hydrochloride for 10 days after feeding them with HFD or the control diet for 8 weeks. […] Incidentally, in FIG. 1, the term “days” represents the number of days elapsed after initiation of administration of tetracycline hydrochloride.
On the next day after completion of administration of tetracycline hydrochloride (on day 11 after initiation of administration), the mice were anesthetized by isoflurane inhalation. After it was Confirmed that the mice lost pain sensation by pinching the tail with forceps, the mice underwent laparotomy and the blood was collected from the abdominal vena cava with a syringe containing heparin. The collected blood was centrifuged at 4° C. for 10 minutes at 7500 rpm thereby to separate plasma. The obtained plasma was cryopreserved. […]
By using the cryopreserved plasma, the plasma ALT level, plasma AST level and plasma glucose level were measured using Hitachi autoanalyzer 7070 (Hitachi Hi Technologies), and the plasma insulin level was measured using an insulin assay kit (Seikagaku Corporation). […]

The test system of data set [2] is C57BL/6J male mice. Nature of the data set: Subcutaneous administration of tetracycline hydrochloride for 10 days to mice fed with HFD for 8 weeks (Example 2). In kind it is in vivo. The conditions noted are these: for histopathological test of liver: mouse, in vivo, sc.
Description: as §1
20 mice (7 weeks of age) were fed ad libitum with HFD for 8 weeks. Then, the mice were divided into 4 groups (5 mice×4 groups) in such a manner that the body weight and the body fat percentage were equal in the respective groups, and subcutaneously administered with tetracycline hydrochloride at a dose of 0, 30, 60 and 100 mg/kg/day for 10 days (hereinafter, the groups administered with tetracycline hydrochloride at a dose of 0, 30, 60 and 100 mg/kg/day are referred to as “TC 0 group”, “TC 30 group”, “TC 60 group” and “TC 100 group”, respectively). The mice were fed ad libitum with HFD also during the period of administering tetracycline hydrochloride.
The body weight of mice was measured on 3 days before initiation of administration of tetracycline hydrochloride and everyday from the next day until day 11 after initiation of administration thereof. FIG. 12 is a line graph showing the change in the body weight of mice subcutaneously administered with tetracycline hydrochloride for 10 days after feeding them with HFD for 8 weeks. […] Incidentally, in FIG. 12, the term “days” represents the number of days elapsed after initiation of administration of tetracycline hydrochloride.
Blood collection and dissection were carried out in the same manner as in Example 1.
The plasma ALT level, plasma AST level, plasma insulin level and plasma glucose level were measured in the same manner as in Example 1. FIG. 13 is a bar graph showing the plasma ALT level in mice subcutaneously administered with tetracycline hydrochloride for 10 days after feeding them with HFD for 8 weeks. FIG. 14 is a bar graph showing the plasma AST level in mice subcutaneously administered with tetracycline hydrochloride for 10 days after feeding them with HFD for 8 weeks. […] FIG. 15 is a bar graph showing the plasma insulin level in mice subcutaneously administered with tetracycline hydrochloride for 10 days after feeding them with HFD for 8 weeks. […] FIG. 16 is a bar graph showing the plasma glucose level in mice subcutaneously administered with tetracycline hydrochloride for 10 days after feeding them with HFD for 8 weeks.
The hepatic TG level was measured in the same manner as in Example 1. FIG. 17 is a bar graph showing the hepatic TG level in mice subcutaneously administered with tetracycline hydrochloride for 10 days after feeding them with HFD for 8 weeks.
Measurement of Hepatic TNF-α mRNA level and hepatic IL-1β mRNA level The hepatic TNF-α mRNA level and hepatic IL-1β mRNA level were measured in the same manner as in Example 1. FIG. 18 is a bar graph showing the hepatic TNF-α mRNA level in mice subcutaneously administered with tetracycline hydrochloride for 10 days after feeding them with HFD for 8 weeks. FIG. 19 is a bar graph showing the hepatic IL-1β mRNA level in mice subcutaneously administered with tetracycline hydrochloride for 10 days after feeding them with HFD for 8 weeks.
A histopathological test of liver was carried out in the same manner as in Example 1.

Setting [3] is: HFD 8 weeks, i.p. 30 mg/kg/day for 10 days, vs normal mice.
Setting [4] is: HFD group (i.p. 0, 10, 30 mg/kg/day for 10 days), vs normal mice.
Setting [5] is: HFD 8 weeks, s.c. 30 mg/kg/day for 10 days, vs normal mice.
Where [6] appears, read: HFD 8 weeks, s.c. 60 mg/kg/day for 10 days, vs normal mice.
Setting [7] is: HFD 8 weeks, s.c. 100 mg/kg/day for 10 days, vs normal mice.

Structures can show the parent of a compound that is named as a salt.

Regarding `CN(C)[C@@H]1C(O)=C(C(N)=O)C(=O)[C@@]2(O)C(O)=C3C(=O)c4c(O)cccc4[C@@](C)(O)[C@H]3C[C@@H]12` [tetracycline hydrochloride], the “plasma ALT level” value in data set [1] (setting [3]), in data set [2] (setting [5]), in data set [2] (setting [6]) and in data set [2] (setting [7]) was “significantly higher” throughout. The “plasma AST level” value in data set [1] (setting [3]), in data set [2] (setting [5]), in data set [2] (setting [6]) and in data set [2] (setting [7]) was “significantly higher” each time. In addition, the plasma glucose level result is on record as “equivalent to or higher” in data set [1] (setting [4]) and “higher” in data set [2] (HFD 8 weeks, s.c. any group (0, 30, 60, 100 mg/kg/day) for 10 days, vs normal mice). The plasma insulin level entry is reported as “equivalent to or higher” in data set [1] (setting [4]), “higher” in data set [2] (setting [5]), “higher” in data set [2] (setting [6]) and “equivalent” in data set [2] (setting [7]). Besides, the “histopathological test of liver” value in data set [1] (mouse, in vivo, ip, 30 mg/kg/day) is “presence of fatty liver and the invasion of inflammatory cells were observed”; in data set [2] (30 mg/kg/day) it was “presence of fatty liver and the invasion of inflammatory cells were observed”; in data set [2] (60 mg/kg/day), “presence of fatty liver and the invasion of inflammatory cells were observed”; in data set [2] (100 mg/kg/day), “presence of fatty liver and the invasion of inflammatory cells were observed”.
